Results from patent publication US20050059585A1, “Methionine aminopeptidase-2 inhibitors and methods of use thereof” (Praecis Pharmaceuticals Inc., priority 2000, published 2005).

Experiments:
Format in all cases: cell-based
PC-3 = experiment: tumor cell line panel, SRB growth assay; details: Homo sapiens; PC-3, Prostate, 48 hours
Procedure: (§1) The compound of example 5 was also evaluated against a panel of cancer cell lines (Alley, M.C. et al. […] Cancer Research 48: 589-601; Grever, M. R., et al. (1992) Seminars in Oncology, Vol. 19, No. 6, pp 622-638; Boyd, M. R., and Paull, K. D. (1995) Drug Development Research 34: 91-109). The human tumor cell lines of the cancer screening panel were grown in RPMI 1640 medium containing 5% fetal bovine serum and 2 mM L-glutamine. Cells were inoculated into 96 well microtiter plates in 100 μL at plating densities ranging from 5,000 to 40,000 cells/well depending on the doubling time of individual cell lines. After cell inoculation, the microtiter plates were incubated at 37° C., 5 % CO2, 95 % air and 100 % relative humidity for 24 hours prior to addition of experimental drugs.
(§2) After the 24 hour incubation period, two plates of each cell line were fixed in situ with TCA, to represent a measurement of the cell population for each cell line at the time of drug addition (Tz). Experimental drugs were solubilized in dimethyl sulfoxide at 400-fold the desired final maximum test concentration and stored frozen prior to use. At the time of drug addition, an aliquot of frozen concentrate was thawed and diluted to twice the desired final maximum test concentration with complete medium containing 50 μg/ml gentamicin. Additional four, 10-fold or ½ log serial dilutions were made to provide a total of five drug concentrations plus control. Aliquots of 100 μl of these different drug dilutions were added to the appropriate microtiter wells already containing 100 μl of medium, resulting in the required final drug concentrations.
(§3) Following drug addition, the plates were incubated for an additional 48 hours at 37° C., 5 % CO2, 95 % air, and 100 % relative humidity. For adherent cells, the assay was terminated by the addition of cold TCA. Cells were fixed in situ by the gentle addition of 50 μl of cold 50 % (w/v) TCA (final concentration, 10% TCA) and incubated for 60 minutes at 4° C. The supernatant was discarded, and the plates were washed five times with tap water and air dried. Sulforhodamine B (SRB) solution (100 μl) at 0.4 % (w/v) in 1 % acetic acid were added to each well, and plates were incubated for 10 minutes at room temperature. After staining, unbound dye was removed by washing five times with 1 % acetic acid and the plates were air dried. Bound stain was subsequently solubilized with 10 mM trizma base, and the absorbance was read on an automated plate reader at a wavelength of 515 nm. For suspension of the cells, the methodology used was the same except that the assay was terminated by fixing settled cells at the bottom of the wells by gently adding 50 μl of 80 % TCA (final concentration, 16% TCA). Using the seven absorbance measurements [time zero, (Tz), control growth, (C), and test growth in the presence of drug at the five concentration levels (Ti)], the percentage growth was calculated at each of the drug concentrations levels.
(§4) Percentage growth inhibition was calculated as: [(Ti−Tz)/(C−Tz)]×100 for concentrations for which Ti>/=Tz [(Ti−Tz)/Tz]×100 for concentrations for which Ti<Tz.
(§5) Growth inhibition of 50% (GI50) was calculated from [(Ti−Tz)/(C−Tz)]×100=50, which is the drug concentration resulting in a 50% reduction in the net protein increase (as measured by SRB staining) in control cells during the drug incubation. The G150 was calculated for each of the cell lines if the level of activity is reached; however, if the effect was not reached or is exceeded, the value for that parameter is expressed as greater or less than the maximum (10^−4 M) or minimum (10^−8 M) concentration tested.

SK-MEL-2 = experiment: tumor cell line panel, SRB growth assay; details: Homo sapiens; SK-MEL-2, Melanoma, 48 hours
Procedure: as §1, §2, §3, §4, §5

SF-268 = experiment: tumor cell line panel, SRB growth assay; details: Homo sapiens; SF-268, CNS, 48 hours
Procedure: as §1, §2, §3, §4, §5

SN12C = experiment: tumor cell line panel, SRB growth assay; details: Homo sapiens, Renal, 48 hours
Procedure: as §1, §2, §3, §4, §5

MDA-N = experiment: tumor cell line panel, SRB growth assay; details: Homo sapiens, Breast, 48 hours
Procedure: as §1, §2, §3, §4, §5

SW-620 = experiment: tumor cell line panel, SRB growth assay; details: Homo sapiens; SW-620, Colon, 48 hours
Procedure: as §1, §2, §3, §4, §5

HS 578T = experiment: tumor cell line panel, SRB growth assay; details: Homo sapiens, Breast, 48 hours
Procedure: as §1, §2, §3, §4, §5

A498 = experiment: tumor cell line panel, SRB growth assay; details: Homo sapiens; A498, Renal, 48 hours
Procedure: as §1, §2, §3, §4, §5

NCI-H522 = experiment: tumor cell line panel, SRB growth assay; details: Homo sapiens; NCI-H522, Non-Small Cell Lung, 48 hours
Procedure: as §1, §2, §3, §4, §5

ST486 = experiment: Inhibition of GC derived B cell lymphoma lines in culture
[1] = system: human umbilical vein endothelial cells (HUVEC); experiment: human endothelial cell growth assay (Huvec assay); details: Homo sapiens, HUVEC; read-out: IC50 (pM), Huvec Assay
Procedure: For the human endothelial cell growth assay, human umbilical vein endothelial cells (HUVEC) were maintained in Clonetics endothelial growth medium (EGM) in a 37° C. humidified incubator. Cells were detached with trypsin and pelleted by centrifugation at 300×g for 5 minutes at room temperature. HUVEC were added to 96-well plates at 5,000 cells/well. After incubating for 6 hours, the medium was replaced with 0.2 ml fresh EGM supplemented with 0.5 nM bFGF and the desired concentration of test angiogenesis inhibitor compound. Test angiogenesis inhibitor compounds were initially dissolved in ethanol at stock concentrations of either 10 mM or 0.1 mM, and subsequently diluted in EGM to obtain concentrations from […] to 10 μM. After 48 hours at 37° C., the medium was replaced with fresh bFGF-supplemented EGM and test angiogenesis inhibitor compound. Following incubation for an additional 48 hours at 37° C. MTT (3-[4,5-dimethylthiazol-2-yl]-2,5-diphenyl-tetrazolium bromide) was added to 1 mg/ml. After 2-4 hours at 37° C. the medium was replaced with 0.1 ml/well isopropanol. The plates were placed on a shaker for 15 minutes at room temperature and analyzed in a Labsystems Multiskan plate spectrophotometer at an optical density of 570 nm.

`CO[C@@H]1[C@H](OC(=O)N[C@@H](C(N)=O)C(C)C)CC[C@]2(CO2)[C@H]1[C@@]1(C)O[C@@H]1CC=C(C)C` [Example 5, (1-Carbamoyl-2-methyl-propyl)-carbamic acid-(3R, 4S, 5S, 6R )-5-methoxy-4-[(2R, 3R)-2-methyl-3-(3-methyl-but-2-enyl)-oxiranyl]-1-oxa-spiro[2.5]oct-6-yl ester] showed a GI50 (PC-3) of 18 µM, a GI50 (SK-MEL-2) of over 100 µM and a GI50 (SF-268) of 26.1 µM. For the same molecule, the GI50 (SN12C) was under 0.01 µM, the GI50 (MDA-N) was 1.58 µM and the GI50 (SW-620) was over 100 µM. For the same molecule, the GI50 (HS 578T) was 1.15 µM, the GI50 (A498) was over 100 µM and the GI50 (NCI-H522) was 12.9 µM. The GI50 (ST486; Homo sapiens, ST486, read-out: Growth Inhibition Relative to Vehicle Control, GI50%) was 0.00022 µM, the “Growth Inhibition Relative to Vehicle Control, Maximum Inhibition” value (ST486; ST486, BL, 0.01-100 nM, five or six days) was 53% and the IC50 [1] was 93 pM.
